In data set [1] the test system is BE-M17 human neuroblastoma cells overexpressing A53T α-synuclein. In words: Thioflavin S aggregation assay in rotenone-treated cells. It is filed as cell-based. The settings on record: 500 nM, 1 μM or 5 μM rotenone (FIGS. 4A-E). An excerpt: (§1) Therefore, to test the therapeutic potential of the compounds, two cell-based assays were utilized. In both assays, rotenone is used to induce mitochondrial oxidative stress and α-synuclein aggregation. The first assay utilizes the binding of the fluorescent dye thioflavin S to structures with high β-sheet content including α-synuclein fibrils. Therefore, quantitative assessment of the extent of thioflavin S-positive staining of fixed cells is used to test the ability of the compounds to decrease the amount of α-synuclein aggregates. In the second assay, cell viability is assessed using the XTT Cytotoxicity assay, which is dependent on intact, functional mitochondria in live cells. Thus, the XTT Cytotoxicity assay is used to test the ability of the compounds to ameliorate the mitochondrial toxicity and resulting loss of viability associated with the accumulation of α-synuclein aggregates. Phrased another way, the XTT Cytotoxicity assay is used to gauge the compounds neuroprotective efficacy. These studies are presented in the following examples.
(§2) BE-M17 human neuroblastoma cells stably transfected with A53T-mutant human α-synuclein were obtained. Cell culture reagents were obtained from Gibco/Invitrogen, and cells were grown in OPTIMEM supplemented with 10% FBS, Penicillin (100 units/mil)-Streptomycin (100 μg/ml) and 500 μg/ml G418 as previously described (Ostrerova-Golts et al., J. Neurosci., 20:6048-6054, 2000).
Thioflavin S is commonly used to detect amyloid-containing structures in situ, including in brain tissue (Vallet et al., Acta Neuropathol., 83:170-178, 1992), and cultured cells (Ostrerova-Golts et al., J. Neurosci., 20:6048-6054, 2000), whereas thioflavin T is often used as an in vitro reagent to analyze the aggregation of soluble amyloid proteins into fibrils enriched in β-pleated sheet structures (LeVine III, Prot. Sci., 2:404-410, 1993). Therefore, Thioflavin S histochemistry was used on cultured cells to detect aggregates containing a high degree of […] structures that formed in response to oxidative stress-inducing agents (in this case rotenone) as previously described, with minor modifications (Ostrerova-Golts et al., J. Neurosci, 20:6048-6054, 2000). Briefly, for these studies, cells were grown on Poly-D-Lysine coated glass slide chambers at approximately 3×10^4 cells/cm^2. After 24 hours, cells were treated with 500 nM, 1 μM or 5 μM rotenone (Sigma) or vehicle (0.05% DMSO) as indicated. Immediately after rotenone (or vehicle) addition, compounds were added at the indicated concentration, or cell culture media only (no compound) in the presence of rotenone was added. Identical treatments were repeated after 48 hours. After an additional 48 hours, cells were fixed for 25 minutes in 3% paraformaldehyde. After a PBS wash, the cells were incubated with 0.015% thioflavin S in 50% ethanol for 25 minutes, washed twice for four minutes in 50% ethanol and twice for five minutes in deionized water and then mounted using an aqueous-based mountant designed to protect against photobleaching. Aggregates that bind to thioflavin S were detected with a fluorescent microscope using a High Q FITC filter set (480 to 535 nm bandwidth) and a 20× objective lens unless otherwise indicated. Between 8 and 16 representative images per condition were selected, imaged and processed by an experimenter who was blinded to treatment conditions. To assess the amount of thioflavin S-positive aggregates, the total area per field covered by thioflavin S-positive inclusions was determined. […] Spurious, non-cell associated fluorescence was manually removed. Unless indicated otherwise, data represent group means ±SEM. Statistical analyses were performed with GraphPad Prism (GraphPad Inc). Differences between means (two samples) were assessed by the […]. Differences among multiple means were assessed by one-factor ANOVA followed by Tukey's multiple comparison test.

The test system of data set [2] is A53T α-synuclein-expressing BE-M17 cells. In words: XTT Cytotoxicity assay - protection against rotenone-induced cytotoxicity. The data set is classed as cell-based. The settings on record: 40-44 hours.
Description: as §1, §2
Research has shown that the accumulation of α-synuclein fibrils in Lewy bodies contributes mechanistically to the degradation of neurons in Parkinson's disease and related disorders (Polymeropoulos et al., Science 276:2045-2047, 1997; Kruger et al., Nature Genet. 18:106-108, 1998). Here, the XTT Cytotoxicity assay (hereafter referred to as the XTT assay) was used to measure the ability of test compounds to protect against rotenone-induced cytotoxicity (neuroprotective ability). The assay is based on the principle that conversion of the yellow tetrazolium salt XTT to form an orange formazan dye (that absorbs light around 490 nm) occurs only in metabolically active, viable cells. Therefore, light absorbance at 490 nm is proportional to cell viability. For this assay, cells were plated in 96 well tissue culture dishes at 10^4 cells per well. After 24 hours, cells were treated with 500 nM or 2 μM rotenone, or vehicle (0.05% DMSO) as indicated. Immediately after rotenone addition, compounds were added at the indicated concentration. […] Untreated cells received cell culture media only (no compound, with or without rotenone). After 40-44 hours of treatment, conditioned media was removed and replaced with 100 μl fresh media and 50 μl XTT labeling reaction mixture according to the manufacturer's recommendations. Four to five hours later, the absorbance at 490 nm was measured and corrected for absorbance at the 700 nm reference wavelength. […] Percent inhibition of cell death was calculated as the proportion of the rotenone-induced absorbance (viability) decrease that was eliminated by test compound treatment.

As for `C=C(C)[C@H]1Cc2c(ccc3c2O[C@@H]2COc4cc(OC)c(OC)cc4[C@@H]2C3=O)O1` [rotenone, reference compound], the “thioflavin S-positive aggregates relative to vehicle-treated control cells” value in data set [1] is “dose-dependent increase in thioflavin S-positive aggregates”. Further, the “decrease of viability relative to untreated cells” value in data set [2] (500 nM rotenone) was 30-40%; in data set [2] (2 μM rotenone) it was 40-50%.

The values above are taken from patent US20070276034A1, “Compounds, compositions and methods for the treatment of synucleinopathies” (priority 2002, published 2007).
